Each structure is given as a SMILES string. ≈ marks a conversion by molar mass, not a printed value. Where only a bound is given, the exact number is not on record here.

As a reminder, the MIC is the lowest concentration found to suppress growth. Read a high MIC as a need for much substance.

One assay concerns S. pyogenes ATCC 49399. In words: Broth microdilution MIC (time-kill study). Type of assay: cell-based, Streptococcus pyogenes. A general note: In broth dilution the organism is exposed to a series of concentrations in liquid medium.
The subject of assay [1] is S. pneumoniae ATCC 49619. Kind of assay: Time-kill assay. It is filed as cell-based, Streptococcus pneumoniae.
The test system of a further assay is E. coli MMX 1312. Kind of assay: Time-kill assay. Type of assay: cell-based, Escherichia coli. Conditions: 2×, 4×, 8× MIC; 2, 6, 24 hr.
The subject of another assay is S. agalactiae ATCC 13813. Kind of assay: Broth microdilution MIC (time-kill study). It is filed as cell-based, Streptococcus agalactiae.
Assay [2] concerns S. pneumoniae ATCC 49619. In words: Broth microdilution MIC (time-kill study). It is filed as cell-based, Streptococcus pneumoniae.
The next assay relates to E. coli ATCC 25922. Kind of assay: Broth microdilution MIC (time-kill study). It is filed as cell-based, Escherichia coli.
Assay [3] relates to E. coli (ATCC 25922, ATCC 35218, MMX 1312). Kind of assay: Agar dilution MIC (spontaneous mutation study; strain in conditions). Type of assay: cell-based, Escherichia coli. A general note: In agar dilution, organisms are placed on agar that contains the substance at set levels.
The test system of assay [4] is E. coli ATCC 35218 (TEM-1 β-lactamase producer). Kind of assay: Broth microdilution MIC (time-kill study). It is filed as cell-based, Escherichia coli.
The test system of assay [5] is three isolates each of E. coli, Streptococcus spp. and Bacteroides spp. Kind of assay: Time-kill assay, overall summary. It is filed as cell-based. The procedure:
MIC values were determined by broth microdilution in accordance with guidelines from the Clinical and Laboratory Standards Institute (CLSI; (1) “Methods for Dilution Antimicrobial Susceptibility Tests for Bacteria That Grow Aerobically; Approved Standard; 11th ed.,” CLSI standard M07, 2018; (2) “Performance Standards for Antimicrobial Susceptibility Testing; 28th ed.,” CLSI supplement M100, 2018).
During the time-kill study, the test flasks were sampled at 2, 6, and 24 hr for determination of viable counts using the track dilution method as described above. Bacteroides was also sampled at 48 hr. All E. coli plates were incubated for 20-24 hr at 35° C., Streptococci for 20-24 hr at 35° C. in a CO2 incubator, and Bacteroides for approximately 48 hr at 35° C. in the anaerobe chamber. Colonies were counted manually, and the CFU/mL was determined from the average count of the duplicate plates, followed by the calculation of the log10 CFU/mL. The limit of detection for the assay was 50 CFU/mL.

Assay [6] has as its system Bacteroides non fragilis clinical isolates. In words: MIC distribution against clinical isolates. To be noted: 29 Bacteroides non-fragilis isolates. It is filed as cell-based.
For assay [7], the system named is Prevotella spp. clinical isolates. In words: MIC distribution against clinical isolates. It is filed as cell-based. Conditions: 30 Prevotella spp. isolates.

On to `CO[C@H]1/C=C/O[C@@]2(C)Oc3c(C)c(O)c4c(O)c(c5c(nc6cc(C)ccn65)c4c3C2=O)NC(=O)/C(C)=C\C=C\[C@H](C)[C@H](O)[C@@H](C)[C@@H](O)[C@@H](C)[C@H](OC(C)=O)[C@@H]1C` [rifaximin], for which the MIC is 0.12 µg/mL (≈ 0.153 µM) against S. pyogenes ATCC 49399 (S. pyogenes ATCC 49399); 0.12 µg/mL (≈ 0.153 µM) against S. pyogenes ATCC 49399 (broth microdilution); 0.25 µg/mL (≈ 0.318 µM) in the assay on S. agalactiae ATCC 13813 (S. agalacttae ATCC 13813 (so in the source)); 0.25 µg/mL (≈ 0.318 µM) against S. agalactiae ATCC 13813 (broth microdilution); 0.06 µg/mL (≈ 0.0763 µM) with S. pneumoniae ATCC 49619 [2] (S. pneumoniae ATCC 49619); 0.06 µg/mL (≈ 0.0763 µM) with S. pneumoniae ATCC 49619 [2] (broth microdilution). The minimal inhibitory concentration (MIC) with E. coli ATCC 25922 (E. coli ATCC 25922) was 8 µg/mL (≈ 10.2 µM); against E. coli ATCC 25922 (broth microdilution), 8 µg/mL (≈ 10.2 µM); in assay [4] (E. coli ATCC 35218), 4 µg/mL (≈ 5.09 µM); in assay [4] (broth microdilution), 4 µg/mL (≈ 5.09 µM). The “time-kill kinetics outcome (bactericidal = ≥3 log reduction in CFU per mL)” value with S. pneumoniae ATCC 49619 [1] (2×, 4×, 8× MIC, 2, 6, 24 hr) was “rebounded to no-drug control levels at 24 hr”; with E. coli MMX 1312, “Regrowth was also observed for all concentrations”. For the same compound, the CFU decrease entry in the assay on S. pneumoniae ATCC 49619 [1] (all three concentrations, 6 hr timepoint) is reported as “approximately 2.3 log10 CFU”. In addition, the “Agar MIC” value in assay [3] (E. coli ATCC 25922) was more than 4 µg/mL; in assay [3] (E. coli ATCC 35218), more than 4 µg/mL; in assay [3] (E. coli MMX 1312), 4 µg/mL. In addition, in assay [3] (over evaluated E. coli isolates (range stated jointly with other groups)), the “MIC values (agar dilution)” value is not below 4 µg/mL. Moreover, the overall time-kill outcome in assay [5] was “bacteriostatic activity and regrowth was typically observed”. Further, the “Number of test isolates at MIC” value in assay [6] (MIC […]) was 12; in assay [6] (MIC ≤0.03 μg/mL), 3; in assay [7] (MIC 32 μg/mL), 1; in [7] (MIC […]) it was 12. Moreover, the “Cumulative percentage of isolates inhibited at MIC” value in assay [7] (MIC 32 μg/mL) stood at 100.0%.

The values are drawn from patent US20210386367A1, “DEVICES AND SYSTEMS FOR GASTROINTESTINAL MICROBIOME DETECTION AND MANIPULATION” (Progenity, Inc., priority 2018, published 2021).
